Experimental data from article PMC12406195, “Understanding the Modes of Action of β‑Ketoiminato Iridium(III) Complexes in Cancer Cells” (Inorganic Chemistry, 2025).

tested on: MDA-MB-231 cells; experiment: Chemosensitivity (MTT cell viability) assay, MDA-MB-231; assay type: cell-based, human; conditions: MDA-MB-231, 24 h, n = 9
Procedure: (§1) All cytotoxicity assays were conducted using human cell lines: breast adenocarcinomas (MDA-MB-231 and MCF-7), pancreatic carcinoma (MIA PaCa-2) and non-cancerous epithelial retinal (ARPE-19) cell lines. All cell lines were routinely maintained as monolayer cultures in appropriate complete media:
(§2) MCF-7, MIA PaCa-2 and ARPE-19 in high glucose DMEM and MDA-MB-231 in RPMI-1640, and both media were supplemented with 10% FBS, 1 mM sodium pyruvate, 2 mM L-glutamine, and 1% pen-strep. All cells were initially grown in T-25 or T-75 flasks at 37 °C and 5% CO2. Before chemosensitivity studies, cell monolayers were passaged using trypsin-EDTA (0.05%) and diluted to a concentration of 1 x 10^4 cells/mL (or 4 x 10^4 cells mL for 24 h assays). All assays were conducted in 96-well plates, in which 100 µL of the cell suspension was added for 24 h at 37 °C and 5% CO2, and then 100 µL of compound/medium dilutions for a further 96 h (or 24 h). All compound stocks were made using sterile DMSO at 100 mM before dilution, and a maximum of 0.1% DMSO was used in each assay. After incubation, 3-(4,5-dimethylthiazol-2-yl)-2,5-diphenyltetrazolium bromide (20 µL, 5 mg/mL in PBS) was added to each well and incubated for 3 h at 37°C and 5% CO2. All solutions were then aspirated, DMSO (150 µL) added to each well, gently mixed, and the absorbance was measured at 540 nm using a ClarioStar spectrophotometer microplate reader. Results were plotted on a logarithmic scale, and the half maximal inhibitory concentration (IC50) was determined from a triplicate of triplicate repeats (n = 9) and reported as an IC 50 ± Standard Deviation (SD).

Molecule	IC50
N.N.O=C([O-])C1(C(=O)[O-])CCC1.[Pt+2] [CARB, carboplatin, reference compound]	> 100 µM
[NH2][Pt]([NH2])([Cl])[Cl] [CDDP, cisplatin, reference compound]	> 100 µM
[Cp*Ir(C16H12Cl2NO)(PTA)](PF6) [Compound 2]	21 ± 1 µM
[Cp*Ir(C16H13BrNO)(PTA)](PF6) [Compound 3]	22 ± 1 µM
[Cp*Ir(C18H18NO2)(PTA)](PF6) [Compound 4]	36 ± 1 µM

same assay, conditions: MDA-MB-231, 96 h, n = 9

Molecule	IC50
N.N.O=C([O-])C1(C(=O)[O-])CCC1.[Pt+2] [CARB, carboplatin, reference compound]	16 ± 1 µM
[NH2][Pt]([NH2])([Cl])[Cl] [CDDP, cisplatin, reference compound]	2.2 ± 0.3 µM
[Cp*Ir(C16H12Cl2NO)(PTA)](PF6) [Compound 2]	5.4 ± 0.3 µM
[Cp*Ir(C16H13BrNO)(PTA)](PF6) [Compound 3]	4.8 ± 0.5 µM
[Cp*Ir(C18H18NO2)(PTA)](PF6) [Compound 4]	4.1 ± 0.5 µM

same assay, conditions: MDA-MB-231 compared to ARPE-19, 96 h

Molecule	Selectivity index (SI)
N.N.O=C([O-])C1(C(=O)[O-])CCC1.[Pt+2] [CARB, carboplatin, reference compound]	> 6.3
[NH2][Pt]([NH2])([Cl])[Cl] [CDDP, cisplatin, reference compound]	2.7
[Cp*Ir(C16H12Cl2NO)(PTA)](PF6) [Compound 2]	3.0
[Cp*Ir(C16H13BrNO)(PTA)](PF6) [Compound 3]	3.0
[Cp*Ir(C18H18NO2)(PTA)](PF6) [Compound 4]	2.6

tested on: MCF-7 cells; experiment: Chemosensitivity (MTT cell viability) assay, MCF-7; assay type: cell-based, human; conditions: MCF-7, 96 h, n = 9
Procedure: as §1, §2

Molecule	IC50
N.N.O=C([O-])C1(C(=O)[O-])CCC1.[Pt+2] [CARB, carboplatin, reference compound]	40 ± 1 µM
[NH2][Pt]([NH2])([Cl])[Cl] [CDDP, cisplatin, reference compound]	6.1 ± 0.9 µM
[Cp*Ir(C16H12Cl2NO)(PTA)](PF6) [Compound 2]	45.1 ± 0.8 µM
[Cp*Ir(C16H13BrNO)(PTA)](PF6) [Compound 3]	32.4 ± 0.3 µM
[Cp*Ir(C18H18NO2)(PTA)](PF6) [Compound 4]	34.3 ± 0.6 µM

same assay, conditions: MCF-7 compared to ARPE-19, 96 h

Molecule	Selectivity index (SI)
N.N.O=C([O-])C1(C(=O)[O-])CCC1.[Pt+2] [CARB, carboplatin, reference compound]	> 2.5
[NH2][Pt]([NH2])([Cl])[Cl] [CDDP, cisplatin, reference compound]	1.0
[Cp*Ir(C16H12Cl2NO)(PTA)](PF6) [Compound 2]	0.4
[Cp*Ir(C16H13BrNO)(PTA)](PF6) [Compound 3]	0.5
[Cp*Ir(C18H18NO2)(PTA)](PF6) [Compound 4]	0.3

tested on: MIA PaCa-2 cells; experiment: Chemosensitivity (MTT cell viability) assay, MIA PaCa-2; assay type: cell-based, human; conditions: MIA PaCa-2, 96 h, n = 9
Procedure: as §1, §2

Molecule	IC50
N.N.O=C([O-])C1(C(=O)[O-])CCC1.[Pt+2] [CARB, carboplatin, reference compound]	40 ± 4 µM
[NH2][Pt]([NH2])([Cl])[Cl] [CDDP, cisplatin, reference compound]	3.9 ± 0.6 µM
[Cp*Ir(C16H12Cl2NO)(PTA)](PF6) [Compound 2]	14.9 ± 0.7 µM
[Cp*Ir(C16H13BrNO)(PTA)](PF6) [Compound 3]	11.2 ± 0.1 µM
[Cp*Ir(C18H18NO2)(PTA)](PF6) [Compound 4]	10 ± 1 µM

same assay, conditions: MIA PaCa-2 compared to ARPE-19, 96 h

Molecule	Selectivity index (SI)
N.N.O=C([O-])C1(C(=O)[O-])CCC1.[Pt+2] [CARB, carboplatin, reference compound]	> 2.5
[NH2][Pt]([NH2])([Cl])[Cl] [CDDP, cisplatin, reference compound]	1.5
[Cp*Ir(C16H12Cl2NO)(PTA)](PF6) [Compound 2]	1.1
[Cp*Ir(C16H13BrNO)(PTA)](PF6) [Compound 3]	1.3
[Cp*Ir(C18H18NO2)(PTA)](PF6) [Compound 4]	1.1

tested on: ARPE-19 cells; experiment: Chemosensitivity (MTT cell viability) assay, noncancerous ARPE-19; assay type: cell-based, human; conditions: ARPE-19 noncancerous, 96 h, n = 9
Procedure: The cytotoxicity of the compounds against the cancer cell lines was also compared to the noncancerous retinal epithelial cell line, ARPE-19, to determine the possibility of cancer cell selectivity. […]
as §1, §2

Molecule	IC50
N.N.O=C([O-])C1(C(=O)[O-])CCC1.[Pt+2] [CARB, carboplatin, reference compound]	> 100 µM
[NH2][Pt]([NH2])([Cl])[Cl] [CDDP, cisplatin, reference compound]	6 ± 0.2 µM
[Cp*Ir(C16H12Cl2NO)(PTA)](PF6) [Compound 2]	16 ± 1 µM
[Cp*Ir(C16H13BrNO)(PTA)](PF6) [Compound 3]	14.6 ± 0.8 µM
[Cp*Ir(C18H18NO2)(PTA)](PF6) [Compound 4]	10.7 ± 0.4 µM

tested on: not listed separately; experiment: Stability by UV/vis spectroscopy in fully supplemented phenol-red free media; assay type: physicochemical; conditions: 37 °C, monitored over 96 h
Procedure: d6/D2O mixture (70/30) spiked with 0.1 M NaCl for 96 hours, before HR -MS was conducted; these are […]
Stability Assay by NMR Spectroscopy
Compounds 1-4 (3-4 mg) were dissolved in a 500 µL mixture of 90% DMSO -d6 and 10% D2O. 1H and 31P NMR spectra were obtained by a Bruker Avance 500 MHz at room temperature and multiple time points over 4 days. A solution of sodium chloride in D2O (26.3 g/L, 143 µL) was added to the same samples (final concentration 0.1 M NaCl in 70 % DMSO-d6 and 30% D2O) to mimic the chloride concentration in blood. 1H and 31P NMR spectra were obtained by a Bruker Avance 500 MHz at room temperature and multiple time points over 4 days.
Stability Assays by UV/vis Spectroscopy
The compounds were dissolved in DMSO and added to fully supplemented DMEM phenol-red free media (see Cell Viability Assays section for all additives) under sterile conditions to obtain a final concentration of 60 µg/mL. UV/vis spectra were obtained every 30 min for 96 h at 37 °C.
as §1
MCF-7, MIA PaCa-2 and ARPE-19 in high glucose DMEM and MDA-MB-231 in RPMI-1640, and both media were supplemented with 10% FBS, 1 mM sodium pyruvate, 2 mM L-glutamine, and 1% pen-strep. All cells were initially grown in T-25 or T-75 flasks at 37 °C and 5% CO2. […] All solutions were then aspirated, DMSO (150 µL) added to each well, gently mixed, and the absorbance was measured at 540 nm using a ClarioStar spectrophotometer microplate reader. Results were plotted on a logarithmic scale, and the half maximal inhibitory concentration (IC50) was determined from a triplicate of triplicate repeats (n = 9) and reported as an IC 50 ± Standard Deviation (SD).

Molecule	Time to full decomposition (no further changes in UV/vis spectra)
[Cp*Ir(C16H12Cl2NO)(PTA)](PF6) [Compound 2]	64 h
[Cp*Ir(C16H13BrNO)(PTA)](PF6) [Compound 3]	over 96 h
[Cp*Ir(C18H18NO2)(PTA)](PF6) [Compound 4]	72 h

tested on: plasmid DNA; experiment: Plasmid DNA interaction, agarose gel electrophoresis; assay type: biochemical; conditions: 200 ng plasmid DNA, 100–400 μM, cell-free
Procedure: The ability of compounds to intercalate, nick, or cleave DNA can be evaluated using gel electrophoresis with plasmid DNA. In this study, in vitro plasmid DNA assays were performed by incubating 200 ng of plasmid DNA with different concentrations (100–400 μM) of 1 or CDDP, which served as a positive control. The DNA fragments were then separated via agarose gel electrophoresis, and potential changes in DNA migration patterns were analyzed.
5 Plasmid DNA (200 ng) was incubated with varying concentrations (100, 200, and 400 μM) of compound 1 or CDDP for 24 h at room temperature. The DNA was then separated via agarose gel electrophoresis, and the intensity of supercoiled and nicked circular DNA bands was quantified and expressed as mean ± SEM (n = 4).
MDA-MB-231 cells at 4000 cells/well were seeded into a black clear -bottom 96-well plate using phenol-red free complete RMPI medium, and incubated for 48 h. […] Fluorescence images were obtained using a Zeiss Observer 7 inverted microscope at excitation at 488 nm and emission at 509 […]
Plasmid DNA (200 ng, pBOS -H2B-GFP, BD Biosciences) was incubated overnight at room temperature with 1 or CDDP at concentrations between 100 and 400 μM in double -distilled H2O (20 μL total volume). […] The experiment was conducted in two biological replicates, and the band intensities were quantified and analyzed using ImageJ software. […]

Molecule	Plasmid DNA migration
[NH2][Pt]([NH2])([Cl])[Cl] [CDDP, cisplatin, reference compound]	faster DNA migration
